Test system: HBV
Assay: HBV-DNA Antiviral Assay Using HepG2.117 Cells (intracellular HBV DNA by qPCR)
Format: cell-based, hepatitis B virus (genotype D)
Conditions: Hepatitis B virus, HepG2.117
Outline: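 HepG2.117 cells (genotype D HBV, Tet-off) were induced by doxycycline withdrawal and treated for 3 days with 9 concentrations in 4-fold dilution, 2% DMSO final. Intracellular HBV DNA was measured by qPCR against a standard curve, with ATPlite viability read in parallel. EC50, EC90 and CC50 came from fits against the DMSO control.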

## COc1ccc(-n2c(C(=O)N[C@@H](c3ccccc3)C3CC3)c3n(c2=O)CCN(C(=O)c2ccc(Br)c(Cl)c2)C3)cc1 (racemic) [Example 149, 7-(4-bromo-3-chloro-benzoyl)-2-(4-methoxyphenyl)-3-oxo-N-[rac-(R)-cyclopropyl(phenyl)methyl]-6,8-dihydro-5H-imidazo[1,5-a]pyrazine-1-carboxamide]
  EC50: 500 to 5000 nM

## O=C(NCc1ccccc1)c1c2n(c(=O)n1-c1cccnc1)CCN(C(=O)c1ccc(Cl)c(Cl)c1)C2 [Example 49, N-benzyl-7-(3,4-dichlorobenzoyl)-3-oxo-2-(3-pyridyl)-6,8-dihydro-5H-imidazo[1,5-a]pyrazine-1-carboxamide]
  EC50: > 5000 nM

## COc1ccc(CNC(=O)c2c3n(c(=O)n2-c2ccc(OC4CC4)cc2)CCN(C(=O)c2ccc(Br)c(Cl)c2)C3)c(F)c1 [Example 460, 7-(4-bromo-3-chloro-benzoyl)-2-[4-(cyclopropoxy)phenyl]-N-[(2-fluoro-4-methoxy-phenyl)methyl]-3-oxo-6,8-dihydro-5H-imidazo[1,5-a]pyrazine-1-carboxamide]
  EC50: 100 to 500 nM

## COc1ccc(-n2c(C(=O)NCC(C)C)c3n(c2=O)CCN(C(=O)c2ccc(Cl)c(Cl)c2)C3)cc1 [Example 58, 7-(3,4-dichlorobenzoyl)-N-isobutyl-2-(4-methoxyphenyl)-3-oxo-6,8-dihydro-5H-imidazo[1,5-a]pyrazine-1-carboxamide]
  EC50: > 5000 nM

## CC(C)Oc1ccc(-n2c(C(=O)N[C@@H](C)c3ccc(C#N)cc3)c3n(c2=O)CCN(C(=O)c2ccc(Br)c(Cl)c2)C3)cc1 (stereo in doubt) [Example 234, 7-(4-bromo-3-chloro-benzoyl)-2-(4-isopropoxyphenyl)-3-oxo-N-[rac-(1S)-1-(4-cyanophenyl)ethyl]-6,8-dihydro-5H-imidazo[1,5-a]pyrazine-1-carboxamide]
  EC50: 100 to 500 nM

## O=C(NCc1ccccc1-c1cnccn1)c1c2n(c(=O)n1-c1ccc(OCC(F)(F)F)cc1)CCN(C(=O)c1ccc(Br)c(Cl)c1)C2 [Example 402, 7-(4-bromo-3-chloro-benzoyl)-3-oxo-N-[(2-pyrazin-2-ylphenyl)methyl]-2-[4-(2,2,2-trifluoroethoxy)phenyl]-6,8-dihydro-5H-imidazo[1,5-a]pyrazine-1-carboxamide]
  EC50: < 100 nM

## COc1ccc(-n2c(C(=O)NCc3ncccn3)c3n(c2=O)CCN(C(=O)c2ccc(Br)c(Cl)c2)C3)cc1 [Example 157, 7-(4-bromo-3-chloro-benzoyl)-2-(4-methoxyphenyl)-3-oxo-N-(pyrimidin-2-ylmethyl)-6,8-dihydro-5H-imidazo[1,5-a]pyrazine-1-carboxamide]
  EC50: > 5000 nM

## COc1ccc(-n2c(C(=O)N[C@H](C)c3ccccc3)c3n(c2=O)CCN(C(=O)c2ccc(Br)c(Cl)c2)C3)cc1 (stereo in doubt) [Example 82, 7-(4-bromo-3-chloro-benzoyl)-2-(4-methoxyphenyl)-3-oxo-N-[rac-(1R)-1-phenylethyl]-6,8-dihydro-5H-imidazo[1,5-a]pyrazine-1-carboxamide]
  EC50: 100 to 500 nM

## N#Cc1cccc(-n2c(C(=O)NCc3ccccc3)c3n(c2=O)CCN(C(=O)c2ccc(Br)c(Cl)c2)C3)c1 [Example 44, N-benzyl-7-(4-bromo-3-chloro-benzoyl)-2-(3-cyanophenyl)-3-oxo-6,8-dihydro-5H-imidazo[1,5-a]pyrazine-1-carboxamide]
  EC50: 500 to 5000 nM

## COc1ccc(-n2c(C(=O)N[C@H](c3ccccc3)C(F)(F)F)c3n(c2=O)CCN(C(=O)c2ccc(Br)c(Cl)c2)C3)cc1 (stereo in doubt) [Example 208, 7-(4-bromo-3-chloro-benzoyl)-2-(4-methoxyphenyl)-3-oxo-N-[rac-(1R)-2,2,2-trifluoro-1-phenyl-ethyl]-6,8-dihydro-5H-imidazo[1,5-a]pyrazine-1-carboxamide]
  EC50: 100 to 500 nM

## C[C@H](NC(=O)c1c2n(c(=O)n1-c1ccc(OCC(F)(F)F)cc1)CCN(C(=O)c1ccc(Br)c(Cl)c1)C2)c1ccc(OC(F)F)cc1F (stereo in doubt) [Example 318, 7-(4-bromo-3-chloro-benzoyl)-3-oxo-N-[rac-(1S)-1-[4-(difluoromethoxy)-2-fluoro-phenyl]ethyl]-2-[4-(2,2,2-trifluoroethoxy)phenyl]-6,8-dihydro-5H-imidazo[1,5-a]pyrazine-1-carboxamide]
  EC50: 100 to 500 nM

## O=C(NCc1ccccc1)c1c2n(c(=O)n1-c1ccc(N3CCC(F)(F)C3)cc1)CCN(C(=O)c1ccc(Br)c(Cl)c1)C2 [Example 392, N-benzyl-7-(4-bromo-3-chloro-benzoyl)-2-[4-(3,3-difluoropyrrolidin-1-yl)phenyl]-3-oxo-6,8-dihydro-5H-imidazo[1,5-a]pyrazine-1-carboxamide]
  EC50: 100 to 500 nM

## O=C(NCc1ccccc1)c1c2n(c(=O)n1-c1ccc3[nH]c(C(F)(F)F)cc3c1)CCN(C(=O)c1ccc(Br)c(Cl)c1)C2 [Example 352, N-benzyl-7-(4-bromo-3-chloro-benzoyl)-3-oxo-2-[2-(trifluoromethyl)-1H-indol-5-yl]-6,8-dihydro-5H-imidazo[1,5-a]pyrazine-1-carboxamide]
  EC50: 500 to 5000 nM

## CC(NC(=O)c1c2n(c(=O)n1-c1ccc(OC3CC3)cc1)CCN(C(=O)c1ccc(Br)c(Cl)c1)C2)c1cccc2nccnc12 (racemic) [Example 382, 7-(4-bromo-3-chloro-benzoyl)-2-[4-(cyclopropoxy)phenyl]-3-oxo-N-[rac-(1S)-1-quinoxalin-5-ylethyl]-6,8-dihydro-5H-imidazo[1,5-a]pyrazine-1-carboxamide]
  EC50: < 100 nM

## COc1ccc(CNC(=O)c2c3n(c(=O)n2-c2ccccc2)CCN(C(=O)c2ccc(Br)c(Cl)c2)C3)cc1OC [Example 32, 7-(4-bromo-3-chloro-benzoyl)-N-[(3,4-dimethoxyphenyl)methyl]-3-oxo-2-phenyl-6,8-dihydro-5H-imidazo[1,5-a]pyrazine-1-carboxamide]
  EC50: 100 to 500 nM

## O=C(NCc1ccccc1)c1c2n(c(=O)n1-c1ccc3[nH]ncc3c1)CCN(C(=O)c1ccc(Br)c(Cl)c1)C2 [Example 298, N-benzyl-7-(4-bromo-3-chloro-benzoyl)-2-(1H-indazol-5-yl)-3-oxo-6,8-dihydro-5H-imidazo[1,5-a]pyrazine-1-carboxamide]
  EC50: 500 to 5000 nM

## CC(C)Oc1ccc(-n2c(C(=O)NCc3ccccc3)c3n(c2=O)CCN(C(=O)c2cc4c(Cl)cccc4s2)C3)cc1 [Example 224, N-benzyl-7-(4-chlorobenzothiophene-2-carbonyl)-2-(4-isopropoxyphenyl)-3-oxo-6,8-dihydro-5H-imidazo[1,5-a]pyrazine-1-carboxamide]
  EC50: > 5000 nM

## COc1ccc(-n2c(C(=O)NCc3ccc4ncccc4c3)c3n(c2=O)CCN(C(=O)c2ccc(Cl)c(Cl)c2)C3)cc1 [Example 92, 7-(3,4-dichlorobenzoyl)-2-(4-methoxyphenyl)-3-oxo-N-(6-quinolylmethyl)-6,8-dihydro-5H-imidazo[1,5-a]pyrazine-1-carboxamide]
  EC50: 500 to 5000 nM

## C[C@H](NC(=O)c1c2n(c(=O)n1-c1ccc(OC3CC3)cc1)CCN(C(=O)c1ccc(Br)c(Cl)c1)C2)c1ccc(O[C@H](C)C(N)=O)cc1F (stereo in doubt) [Example 357, 7-(4-bromo-3-chloro-benzoyl)-2-[4-(cyclopropoxy)phenyl]-3-oxo-N-[rac-(1S)-1-[2-fluoro-4-[rac-(1R)-2-amino-1-methyl-2-oxo-ethoxy]phenyl]ethyl]-6,8-dihydro-5H-imidazo[1,5-a]pyrazine-1-carboxamide]
  EC50: 100 to 500 nM

## COc1ccc(-n2c(C(=O)N[C@H](c3ccccc3)C(F)F)c3n(c2=O)CCN(C(=O)c2ccc(Br)c(Cl)c2)C3)cc1 (stereo in doubt) [Example 253, 7-(4-bromo-3-chloro-benzoyl)-2-(4-methoxyphenyl)-3-oxo-N-[rac-(1R)-2,2-difluoro-1-phenyl-ethyl]-6,8-dihydro-5H-imidazo[1,5-a]pyrazine-1-carboxamide]
  EC50: 100 to 500 nM

## CS(=O)(=O)c1cccc(-n2c(C(=O)NCc3ccccc3)c3n(c2=O)CCN(C(=O)c2ccc(Br)c(Cl)c2)C3)c1 [Example 46, N-benzyl-7-(4-bromo-3-chloro-benzoyl)-2-(3-methylsulfonylphenyl)-3-oxo-6,8-dihydro-5H-imidazo[1,5-a]pyrazine-1-carboxamide]
  EC50: > 5000 nM

## COc1ccc(-n2c(C(=O)NCc3ccc(CC(N)=O)cc3)c3n(c2=O)CCN(C(=O)c2ccc(Br)c(Cl)c2)C3)cc1 [Example 183, N-[[4-(2-amino-2-oxo-ethyl)phenyl]methyl]-7-(4-bromo-3-chloro-benzoyl)-2-(4-methoxyphenyl)-3-oxo-6,8-dihydro-5H-imidazo[1,5-a]pyrazine-1-carboxamide]
  EC50: 500 to 5000 nM

## CC(Oc1ccc(CNC(=O)c2c3n(c(=O)n2-c2ccc(OC4CC4)cc2)CCN(C(=O)c2ccc(Br)c(Cl)c2)C3)c(F)c1)C(N)=O (racemic) [Example 394, 7-(4-bromo-3-chloro-benzoyl)-2-[4-(cyclopropoxy)phenyl]-N-[[2-fluoro-4-[rac-(1S)-2-amino-1-methyl-2-oxo-ethoxy]phenyl]methyl]-3-oxo-6,8-dihydro-5H-imidazo[1,5-a]pyrazine-1-carboxamide]
  EC50: 100 to 500 nM

## COc1ccc(-n2c(C(=O)NCc3ccc4oc(C)nc4c3)c3n(c2=O)CCN(C(=O)c2ccc(Cl)c(Cl)c2)C3)cc1 [Example 67, 7-(3,4-dichlorobenozyl)-2-(4-methoxyphenyl)-N-[(2-methyl-1,3-benzoxazol-5-yl)methyl]-3-oxo-6,8-dihydro-5H-imidazo[1,5-a]pyrazine-1-carboxamide]
  EC50: 500 to 5000 nM

## COc1ccc(-n2c(C(=O)NCc3cccc(C#N)c3)c3n(c2=O)CCN(C(=O)c2ccc(Cl)c(Cl)c2)C3)cc1 [Example 63, N-[(3-cyanophenyl)methyl]-7-(3,4-dichlorobenzoyl)-2-(4-methoxyphenyl)-3-oxo-6,8-dihydro-5H-imidazo[1,5-a]pyrazine-1-carboxamide]
  EC50: 500 to 5000 nM

— US11591341B2 (ALIGOS THERAPEUTICS, INC., priority 2019, dated 2023)
